Common to all, as to assay: NCI-60 cell line screen, 48 h
Assay [1] relates to NCI-H23.
In assay [2] the test system is A498.
Assay [3] concerns HCT-15.
Assay [4] concerns K562.
Assay [5] relates to DU-145.
Assay [6] relates to A549.
Assay [7] concerns OVCAR-3.
Assay [8] has as its system OVCAR-5.
Assay [9] has as its system RXF 393.
Assay [10] relates to RPMI-8226.
Assay [11] has as its system NCI-H460.
The subject of assay [12] is TK-10.
In assay [13] the test system is SNB-75.
The test system of assay [14] is UACC-62.
Assay [15] relates to MDA-MB-435.
Assay [16] relates to 786-0.
Assay [17] concerns ACHN.
Assay [18] deals with SF-539.
Assay [19] deals with UACC-257.
Assay [20] concerns HCC 2998.

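All cell lines were grown in 96-well plates and treated with compound for 48 hours. Abbreviation: GI50, concentration required for 50% inhibition of growth.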 Activity calls are given as the source filed them. Rule as the data show it: active = GI50 up to about 1.1 µM and inactive = higher.

As to `CCCCCCNC(=S)N/N=C(\C)c1ccccn1`, the GI50 in assay [1] was < 0.0311 µM (active); in assay [2], 3.18 µM (inactive); in [3], less than 0.01 µM; in assay [4], < 0.01 µM (active); in [5], 1.52 µM (inactive); in [6], 0.12 µM (active). In addition, the GI50 in [7] was < 0.01 µM (active); in assay [8], 0.728 µM (active); in assay [9] it was 0.0189 µM (active); in assay [10] it was < 0.01 µM (active); in assay [11], 0.347 µM (active); in assay [12], 0.55 µM (active). The GI50 in assay [13] was 3.99 µM (inactive); in assay [14] it was 0.182 µM (active); in [15], 1.53 µM (inactive); in [16] it was < 0.0268 µM (active); in [17] it was < 0.0113 µM (active); in assay [18] it was 1.84 µM (inactive). Also, the GI50 in [19] was 0.01 µM (active); in [20], 0.741 µM (active).

With `Cc1ccc(C(=O)CCl)o1`, the GI50 in assay [1] was 5.37 µM (inactive); in [2], > 10 µM (inactive); in assay [3], 4.93 µM; in assay [4], 3.93 µM (inactive); in assay [5], > 10 µM (inactive); in [6], > 10 µM (inactive). Also, the GI50 was > 7.23 µM (inactive) in [7]; > 5.6 µM (inactive) in assay [8]; > 9.31 µM (inactive) in [9]; 2.33 µM (inactive) in assay [10]; > 10 µM (inactive) in assay [11]; 6.9 µM (inactive) in [12]. Besides, the GI50 in assay [13] is > 9.46 µM (inactive); in assay [14] it was > 7.91 µM (inactive); in assay [15], 3.25 µM (inactive); in assay [16], 4.28 µM (inactive); in assay [17] it was > 10 µM (inactive); in assay [18] it was 4.15 µM (inactive). Moreover, the GI50 in assay [19] was > 9.2 µM (inactive); in assay [20], > 10 µM (inactive).

In the case of `NC(Cc1ccc(O)c(O)c1)P(=O)(O)O` (stereo not given), the GI50 in assay [1] is > 100 µM (inactive); in [2] it was > 100 µM (inactive); in assay [3] it was more than 100 µM; in assay [4], 19.6 µM (inactive); in assay [5], > 100 µM (inactive); in [6], > 100 µM (inactive). Besides, the GI50 was > 100 µM (inactive) in [7]; > 100 µM (inactive) in [8]; > 100 µM (inactive) in [9]; 92.7 µM (inactive) in assay [10]; > 100 µM (inactive) in [11]; > 100 µM (inactive) in assay [12]. Also, the GI50 in assay [13], in assay [14], in assay [15], in [16], in [17] and in assay [18] was > 100 µM (inactive) in each case. Also, the GI50 in assay [19] and in assay [20] was > 100 µM (inactive) in each case.

On to `O=[N+]([O-])c1ccccc1S(=O)(=O)c1ccccc1[N+](=O)[O-]`, for which the GI50 is 74.5 µM (inactive) in assay [1]; > 87.7 µM (inactive) in assay [2]; more than 100 µM in assay [3]; > 100 µM (inactive) in assay [4]; > 100 µM (inactive) in assay [5]; > 56.2 µM (inactive) in assay [6]. In addition, the GI50 was > 100 µM (inactive) in assay [7]; > 10 µM (inactive) in assay [8]; 39.5 µM (inactive) in [9]; > 92.7 µM (inactive) in assay [10]; > 100 µM (inactive) in [11]; 53.7 µM (inactive) in assay [12]. For the same molecule, the GI50 in [13] was 21 µM (inactive); in [14] it was > 100 µM (inactive); in assay [15], > 100 µM (inactive); in [16] it was 64.6 µM (inactive); in [17] it was > 90.8 µM (inactive); in assay [18] it was 54.8 µM (inactive). Besides, the GI50 in [19] and in [20] was > 100 µM (inactive) each time.

Consider `CCCc1cc(-c2ccc(-c3cc(CCC)c(C=O)[nH]3)s2)[nH]c1C=O`, for which the GI50 is > 37.1 µM (inactive) in [1]; > 69.5 µM (inactive) in assay [2]; 8.61 µM in [3]; 5.48 µM (inactive) in [4]; > 100 µM (inactive) in assay [5]; 4.42 µM (inactive) in assay [6]. Besides, the GI50 was 12.4 µM (inactive) in [7]; 15.1 µM (inactive) in assay [8]; 30.1 µM (inactive) in assay [9]; > 100 µM (inactive) in assay [10]; 5.2 µM (inactive) in [11]; > 100 µM (inactive) in [12]. Further, the GI50 is > 100 µM (inactive) in [13]; > 32.6 µM (inactive) in [14]; 15.5 µM (inactive) in [15]; 14.4 µM (inactive) in assay [16]; > 26.7 µM (inactive) in assay [17]; > 100 µM (inactive) in assay [18]. Further, the GI50 in assay [19] was > 100 µM (inactive); in assay [20], 5.56 µM (inactive).

For the molecule `O=C1c2c(ccc3c2CCCC3)CC1Cc1ccc2c(c1)CCCC2` (stereo not given), the GI50 in [1] was 39.5 µM (inactive); in assay [2], > 100 µM (inactive); in [3], 36.1 µM; in [4], 36.1 µM (inactive); in assay [5] it was 83.4 µM (inactive); in assay [6], 41.5 µM (inactive). The GI50 in assay [7] was > 100 µM (inactive); in [8] it was > 100 µM (inactive); in [9], 14.3 µM (inactive); in [10] it was 21.6 µM (inactive); in assay [11], 38.5 µM (inactive); in [12], > 100 µM (inactive). In addition, the GI50 in assay [13] is 4.68 µM (inactive); in assay [14], 48 µM (inactive); in assay [15], 34 µM (inactive); in assay [16], 64 µM (inactive); in assay [17], 80.4 µM (inactive); in assay [18] it was > 100 µM (inactive). Besides, the GI50 in assay [19] was 28.3 µM (inactive); in assay [20] it was 34.6 µM (inactive).

For the molecule `C[C@]12CC[C@H]3[C@@H](CCC4=C[C@@H](OC5OCC(OC6OC(CO)C(O)C(O)C6O)C(O)C5O)CC[C@@]43C=O)[C@@]1(O)CCC2C1=CC(=O)OC1` (stereo not given in full), the GI50 in assay [1] is 0.195 µM (active); in assay [2], 0.755 µM (active); in [3] it was 0.504 µM; in assay [4], 0.397 µM (active); in assay [5] it was 0.435 µM (active); in [6], 0.165 µM (active). For the same molecule, the GI50 in [7] is 0.375 µM (active); in assay [8], 1.86 µM (inactive); in [9], 0.23 µM (active); in assay [10], 0.628 µM (active); in [11], 0.0982 µM (active); in assay [12], 0.681 µM (active). The GI50 in assay [13] was 1.4 µM (inactive); in [14] it was 1.81 µM (inactive); in assay [15] it was 0.843 µM (active); in assay [16], 0.365 µM (active); in assay [17] it was 0.137 µM (active); in [18], 0.391 µM (active). The GI50 was 1.42 µM (inactive) in [19] and 0.421 µM (active) in [20].

`O=C(Sc1c(-c2ccccc2)c(=O)n(-c2ccccc2)c(=S)n1-c1ccccc1)c1ccco1`: the GI50 in assay [1] was > 100 µM (inactive); in [2] it was > 100 µM (inactive); in [3], more than 89.1 µM; in assay [4], 34 µM (inactive); in assay [5], > 100 µM (inactive); in [6], > 100 µM (inactive). Further, the GI50 was 99.3 µM (inactive) in assay [7]; > 100 µM (inactive) in [8]; > 100 µM (inactive) in [9]; 33.8 µM (inactive) in assay [10]; > 100 µM (inactive) in [11]; > 100 µM (inactive) in assay [12]. For the same molecule, the GI50 in [13] is 72.1 µM (inactive); in assay [14], > 76.4 µM (inactive); in assay [15], > 100 µM (inactive); in assay [16] it was > 100 µM (inactive); in [17], > 100 µM (inactive); in [18], > 100 µM (inactive). For the same molecule, the GI50 in assay [19] was > 31.6 µM (inactive); in assay [20], > 100 µM (inactive).

`O=C(Cc1ccccc1)NCCc1ccc(O)c(O)c1`: the GI50 in assay [1] was 52.6 µM (inactive); in assay [2] it was > 100 µM (inactive); in assay [3] it was 54.1 µM; in assay [4], 17.9 µM (inactive); in assay [5], > 100 µM (inactive); in [6], > 100 µM (inactive). The GI50 was 35 µM (inactive) in [7]; > 100 µM (inactive) in [8]; > 100 µM (inactive) in assay [9]; 15.6 µM (inactive) in [10]; > 100 µM (inactive) in [11]; > 100 µM (inactive) in assay [12]. Further, the GI50 was > 100 µM (inactive) in assay [13]; 48.9 µM (inactive) in assay [14]; 17.9 µM (inactive) in assay [15]; 93.3 µM (inactive) in assay [16]; 64.4 µM (inactive) in [17]; > 100 µM (inactive) in [18]. Also, the GI50 in assay [19] and in [20] was > 100 µM (inactive) throughout.

As to `COc1cc(N(C)C)c(OC)cc1/C=C\c1ccnc2ccccc12`, the GI50 in assay [1] is 3.86 µM (inactive); in [2] it was 3.1 µM (inactive); in assay [3], 0.652 µM; in [4], 4.01 µM (inactive); in [5] it was 3.46 µM (inactive); in [6], 7.11 µM (inactive). Moreover, the GI50 is 1.72 µM (inactive) in [7]; > 10 µM (inactive) in assay [8]; > 10 µM (inactive) in [9]; 2.71 µM (inactive) in [10]; 2.96 µM (inactive) in assay [11]; 2.12 µM (inactive) in assay [12]. Moreover, the GI50 is 2.57 µM (inactive) in assay [13]; 3.39 µM (inactive) in assay [14]; 1.75 µM (inactive) in [15]; 4.49 µM (inactive) in assay [16]; 6.12 µM (inactive) in [17]; 2.33 µM (inactive) in assay [18]. For the same molecule, the figures for the GI50 in assay [19] and in assay [20] were 3.73 µM (inactive) and 3.62 µM (inactive), respectively.

The values are drawn from ChEMBL document CHEMBL1201862, “PubChem BioAssay data set” (2004).
